Test results: US20100324081A1, “PREVENTIVE, INHIBITOR OR REMEDY FOR CEREBRAL ANEURYSM COMPRISING IBUDILAST AS AN ACTIVE INGREDIENT” (Kyorin Pharmaceutical Co., Ltd., priority 2007, published 2010)

Columns and labels:
[1] = system: rat cerebral aneurysm model; assay: Cerebral aneurysm formation-inhibitory effect on rat cerebral aneurysm model (vascular corrosion cast staging); format: in vivo, Sprague-Dawley rats; details: for Analysis χ^2 Test (P vs control group) / Number of cases at Stage 1 (irregularity of vascular endothelia at the branched portion) / Number of cases at Stage 2 (slight outward projection) / Number of cases at Stage 0 (no irregularity, no outward projection): 12 weeks, 15 cases
Experimental: Cerebral aneurysm models of rats were prepared, Ibudilast was administered to these animals at a dose of […] through the oral route.
In this experiment, 7-week-old Sprague-Dawley rats were used and the posterior nenal arteries at both sides of test animal were ligated and the right side common carotid artery of each test animal was likewise ligated (the preparation of a cerebral aneurysm model of rat: see Non-Patent Document 7 specified above). After one week from the foregoing treatments, the administration of a 1% physiological saline was initiated. Then, the ovaries of each test animal on the both sides were excised after 4 weeks from the initial operation. Starting from the day subsequent to the excision, a 5% gum Arabic solution (control group) and Ibudilast were orally administered to these test animals through the use of an oral probe (sound).
The numbers of cases examined herein were as follows:
Control Group (the animal group administered at a dose of 0 mg/kg/day): 20 cases;
Ibudilast (30 mg/kg/day)-Administered Group: 15 cases; and
Ibudilast (60 mg/kg/day)-Administered Group: 15 cases.
After 12 weeks from the initiation of the administration, the rats were sacrificed, and a resin (curable resin: Baston No. 17 Plastic (manufactured and sold by Polyscience Inc.)) was injected into the blood vessels of the animals to thus form a vascular corrosion cast. Then, each branched portion of the left anterior cerebral artery-olfactory artery present in the vascular corrosion cast was examined using an electron microscope. The evaluation of the results obtained was carried out under the blind conditions to thus estimate the progress of the formation of any cerebral aneurysm according to the following criteria:
Evaluation Criteria of Vascular Corrosion Cast:
Stage 0: There was not observed any […] irregularity and any outward projection;
Stage 1: There was observed irregularity of vascular endothelia at the branched portion;
Stage 2: There was observed a slight and outward projection; and
Stage 3: There was observed a substantial and outward projection or a projection which reaches even to the apex of the branched portion.

[2] = system: female rat animal model used for generating cerebral aneurysm; details: hormone substitution therapy, estrogen-deficient female rat model; Non-Patent Document 7; cited from earlier work

| SMILES | Analysis χ^2 Test (P vs control group) ([1]; Ibudilast 30 mg/kg/day oral) | Number of cases at Stage 1 (irregularity of vascular endothelia at the branched portion) ([1]; Ibudilast 30 mg/kg/day oral) | Number of cases at Stage 2 (slight outward projection) ([1]; Ibudilast 30 mg/kg/day oral) | Number of cases at Stage 0 (no irregularity, no outward projection) ([1]; Ibudilast 30 mg/kg/day oral, vascular corrosion cast, left anterior cerebral artery-olfactory artery branch) | Analysis χ^2 Test (P vs control group) ([1]; Ibudilast 60 mg/kg/day oral) | Number of cases at Stage 0 (no irregularity, no outward projection) ([1]; Ibudilast 60 mg/kg/day oral) | Number of cases at Stage 1 (irregularity of vascular endothelia at the branched portion) ([1]; Ibudilast 60 mg/kg/day oral) | Number of cases at Stage 2 (slight outward projection) ([1]; Ibudilast 60 mg/kg/day oral) | Effect on cerebral aneurysm formation (overall, in words) ([1]; cerebral aneurysm model of rat, oral administration) | Effect on cerebral aneurysm formation (in words) [2] |
| --- | --- | --- | --- | --- | --- | --- | --- | --- | --- | --- |
| CC(C)C(=O)c1c(C(C)C)nn2ccccc12 [Ibudilast] | P < 0.005 | 7 | 3 | 4 | P < 0.005 | 4 | 6 | 5 | excellent effect of cerebral aneurysm formation-preventive or suppression | – |
| C[C@]12CC[C@@H]3c4ccc(O)cc4CC[C@H]3[C@@H]1CC[C@@H]2O [17β-estradiol] | – | – | – | – | – | – | – | – | – | the formation of any cerebral aneurysm is suppressed |
